In one experiment the test system is Aβ production. The experiment in a line: Cellular Aβ IC50 determination (Aβ40 sandwich ELISA). The format is cell-based. The following applies: Cricetulus griseus, Chinese hamster ovary cells over-expressing human APP695 with London and Swedish mutations, 24 h. As to the method: The potency of compounds against memapsin 2 activity was determined in a cellular assay of Aβ production. […] Chinese hamster ovary cells that over-express human APP695 with the London and Swedish mutations were seeded in multi-well plates at 10% confluency. Compounds were dissolved in DMSO to concentrations near 1 mM, and diluted into culture media to a final concentration near 4 μM (final 0.4% DMSO). Compounds were diluted serially and applied to cells in multi-well plates 48 h after seeding. Incubation was continued in 5% CO2 at 37 degrees C. for 24 h. Aliquots were removed and assayed for Aβ40 content using a sandwich ELISA (BioSource International). Amount of Aβ40 over the range of concentration of compounds, relative to control incubations, were fit to a 4-parameter IC50 model.

For a further experiment, the target named is Cathepsin D (Homo sapiens, UniProt P07339). The experiment in a line: Inhibition of cathepsin D activity (substrate peptide […], MALDI-TOF). The format is biochemical. The settings on record: pH 4.1, 37 degrees C., substrate NH3-[…]-CO2, MALDI-TOF; read-out: Cath D Ki.
The target in another experiment is T1, memapsin 1 (Homo sapiens, UniProt Q9Y5Z0).
T1 sequence (Q9Y5Z0 63-518): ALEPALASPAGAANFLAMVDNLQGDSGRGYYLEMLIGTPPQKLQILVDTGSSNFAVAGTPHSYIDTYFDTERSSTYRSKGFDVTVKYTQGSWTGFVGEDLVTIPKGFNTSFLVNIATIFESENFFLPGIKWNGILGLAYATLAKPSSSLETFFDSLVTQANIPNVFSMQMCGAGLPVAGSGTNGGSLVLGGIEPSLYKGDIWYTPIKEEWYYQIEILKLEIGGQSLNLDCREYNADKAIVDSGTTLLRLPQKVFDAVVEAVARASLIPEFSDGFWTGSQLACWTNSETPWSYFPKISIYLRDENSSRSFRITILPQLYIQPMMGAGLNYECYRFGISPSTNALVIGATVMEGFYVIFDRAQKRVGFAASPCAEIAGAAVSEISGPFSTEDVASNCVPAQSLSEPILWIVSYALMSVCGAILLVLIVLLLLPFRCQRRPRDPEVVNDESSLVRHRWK
The experiment in a line: Inhibition of memapsin 1 beta-secretase activity (substrate peptide […], MALDI-TOF). The experiment is classed as biochemical. The following applies: pH 4.1, 37 degrees C., substrate NH3-ELDLAVEFWHDR-CO2, MALDI-TOF; read-out: M1 Ki.

Another experiment addresses memapsin 2 (Homo sapiens, UniProt P56817). In words: Inhibition of memapsin 2 beta-secretase activity toward fluorogenic substrate FS-2. The format is biochemical. The settings on record: pH 4, 37° C., 20 minutes pre-incubation, substrate FS-2, tight-binding model; read-out: M2 Ki. As to the method:
Potency of compounds were determined by measurement of their inhibition of memapsin 2 activity toward a fluorescent substrate. […] Briefly, assays were performed at pH 4, 37° C., by pre-incubation of memapsin 2 enzyme with compound for 20 minutes. Activity measure was initiated by addition of a fluorogenic substrate FS-2 (Bachem Americas, Torrance, Calif.). Fluorescent signal increase over time was measured as a rate of hydrolysis of the peptide substrate.

pIC50, pKi: −log10 of the molar value.

Sequence of memapsin 2 (P56817 46-501): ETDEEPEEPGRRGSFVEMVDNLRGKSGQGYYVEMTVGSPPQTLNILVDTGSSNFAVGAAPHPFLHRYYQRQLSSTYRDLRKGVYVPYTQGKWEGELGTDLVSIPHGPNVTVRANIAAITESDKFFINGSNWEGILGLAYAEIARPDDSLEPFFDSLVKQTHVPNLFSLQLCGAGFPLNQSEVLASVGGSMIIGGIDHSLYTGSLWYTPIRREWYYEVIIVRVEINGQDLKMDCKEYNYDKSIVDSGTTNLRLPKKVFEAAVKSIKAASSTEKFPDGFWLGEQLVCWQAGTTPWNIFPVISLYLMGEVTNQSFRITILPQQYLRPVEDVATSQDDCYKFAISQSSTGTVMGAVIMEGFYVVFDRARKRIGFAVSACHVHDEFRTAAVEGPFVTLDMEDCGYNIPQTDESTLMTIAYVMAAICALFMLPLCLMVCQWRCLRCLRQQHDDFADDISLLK
Sequence of Cathepsin D (P07339 65-412, species assumed): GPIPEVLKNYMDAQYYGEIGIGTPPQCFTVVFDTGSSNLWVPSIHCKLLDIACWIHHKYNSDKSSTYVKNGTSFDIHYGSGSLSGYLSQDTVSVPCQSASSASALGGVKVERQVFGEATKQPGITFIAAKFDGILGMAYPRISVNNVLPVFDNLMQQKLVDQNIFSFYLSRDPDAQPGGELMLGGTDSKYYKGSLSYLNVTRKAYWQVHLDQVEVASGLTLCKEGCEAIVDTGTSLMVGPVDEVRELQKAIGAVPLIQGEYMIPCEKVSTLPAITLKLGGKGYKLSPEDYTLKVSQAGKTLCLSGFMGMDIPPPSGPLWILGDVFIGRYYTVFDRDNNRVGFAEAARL

Usually pIC50 stands for the IC50 on a negative log10 scale, so that one unit is a factor of ten. Higher therefore signals a low IC50. By pKi is commonly meant the Ki on a negative log10 scale, so that one unit is a factor of ten. Regarding `CCC(CC)SC[C@H](NC(=O)OCc1nc(C)cs1)C(=O)N[C@H](CC(C)C)[C@@H](O)C[C@@H](C)C(=O)N[C@@H](C(=O)NCC(C)C)C(C)C` [Structure 72], in the experiment with Aβ production, the negative logarithm of the IC50 (pIC50) was > 5.22. The results for the negative-log Ki (pKi) at Cathepsin D, at memapsin 1 and at memapsin 2 were > 7.00, 6.00 to 7.00 and > 7.00, respectively.

`COCSC[C@H](NC(=O)OCc1nc(C)cs1)C(=O)N[C@H](CC(C)C)[C@@H](O)C[C@@H](C)C(=O)N[C@@H](C(=O)NCC(C)C)C(C)C` [Structure 36]: in the experiment on Aβ production, the negative-log IC50 (pIC50) was > 5.22. Moreover, the pKi on Cathepsin D, at memapsin 1 and at memapsin 2 was > 7.00 throughout.

For `Cc1csc(COC(=O)N[C@@H](CS(C)(=O)=O)C(=O)N[C@H](Cc2cc(F)cc(F)c2)[C@@H](O)C[C@@H](C)C(=O)N[C@@H](C(=O)NCC(C)C)C(C)C)n1` [Structure 79], in the experiment on Aβ production, the pIC50 is > 5.22. Also, the negative logarithm of the Ki (pKi) on Cathepsin D, at memapsin 1 and on memapsin 2 was > 7.00 each time.

As for `Cc1csc(COC(=O)N[C@@H](CS(C)(=O)=O)C(=O)N[C@H](CC(C)C)[C@@H](O)C[C@@H](C)C(=O)N[C@@H](C(=O)NCC(C)C)C(C)C)n1` [Structure 16], the pIC50 with Aβ production was 4.00 to 5.22. Also, the figures for the pKi on Cathepsin D, on memapsin 1 and at memapsin 2 were 6.00 to 7.00, 6.00 to 7.00 and > 7.00, respectively.

For `Cc1nc(COC(=O)N[C@@H](CS(C)(=O)=O)C(=O)N[C@H](CC(C)C)[C@@H](O)C[C@@H](C)C(=O)N[C@@H](C(=O)NCc2ccccn2)C(C)C)c(C)o1` [Structure 91], the pIC50 in the experiment on Aβ production is < 4.00. The negative logarithm of the Ki (pKi) on memapsin 2 was > 7.00.

On to `CC[C@H](C[C@H](O)[C@@H](CC(C)C)NC(=O)[C@H](CS(C)(=O)=O)NC(=O)OCc1nc(C)oc1C)C(=O)N[C@@H](C(=O)NCC(C)C)C(C)C` [Structure 92], for which the negative-log IC50 (pIC50) in the experiment with Aβ production is > 5.22.

As for `CSC[C@H](NC(=O)OCc1nc(C)cs1)C(=O)N[C@H](CC(C)C)[C@@H](O)C[C@@H](C)C(=O)N[C@@H](C(N)=O)C(C)C` [Structure 90], in the experiment on Aβ production, the negative logarithm of the IC50 (pIC50) is > 5.22. The pKi at memapsin 2 is < 6.00.

Turning to `Cc1csc(COC(=O)N[C@@H](CS(C)(=O)=O)C(=O)N[C@@H](CC(C)C)[C@@H](O)C[C@@H](C)C(=O)N[C@H]2CCNC2=O)n1` [Structure 83], the pKi on Cathepsin D, at memapsin 1 and at memapsin 2 was < 6.00 throughout.

Consider `CC[C@H](C[C@H](O)[C@@H](CC(C)C)NC(=O)[C@H](CSC)NC(=O)OCc1nc(C)oc1C)C(=O)N[C@@H](C(=O)NCC(C)C)C(C)C` [Structure 89], for which the pKi at Cathepsin D is > 7.00; at memapsin 1 it was 6.00 to 7.00; at memapsin 2 it was > 7.00.

In the case of `COCCOCSC[C@H](NC(=O)OCc1nc(C)cs1)C(=O)N[C@H](CC(C)C)[C@@H](O)C[C@@H](C)C(=O)N[C@@H](C(=O)NCC(C)C)C(C)C` [Structure 23], the pKi was > 7.00 on Cathepsin D, 6.00 to 7.00 at memapsin 1 and > 7.00 at memapsin 2.

Turning to `CCc1nc(COC(=O)N[C@@H](CSC)C(=O)N[C@H](CC(C)C)[C@@H](O)C[C@@H](C)C(=O)N[C@@H](C(=O)NCC(C)C)C(C)C)c(C)s1` [Structure 70], the pKi on Cathepsin D, on memapsin 1 and at memapsin 2 was > 7.00 each time.

As for `Cc1nc(COC(=O)N[C@@H](CS(C)(=O)=O)C(=O)N[C@H](CC(C)C)[C@@H](O)C[C@@H](C)C(=O)N[C@@H](C(=O)NCc2cccnc2)C(C)C)c(C)o1` [Structure 87], the pKi is 6.00 to 7.00 on Cathepsin D, > 7.00 at memapsin 1 and > 7.00 on memapsin 2.

With `Cc1nc(COC(=O)N[C@@H](CS(C)(=O)=O)C(=O)N[C@H](Cc2ccccc2)[C@@H](O)C[C@@H](C)C(=O)N[C@@H](C(=O)NCC(C)C)C(C)C)c(C)o1` [Structure 51], the pKi on Cathepsin D, at memapsin 1 and at memapsin 2 was > 7.00 throughout.

Consider `CSC[C@H](NC(=O)[C@@H](C)Cc1nc(C)oc1C)C(=O)N[C@@H](CC(C)C)[C@@H](O)C[C@@H](C)C(=O)N[C@H](C(=O)NCC(C)C)C(C)C` [Structure 97], for which the figures for the negative logarithm of the Ki (pKi) at Cathepsin D, on memapsin 1 and on memapsin 2 were > 7.00, 6.00 to 7.00 and > 7.00, respectively.

The record behind these values is patent publication US7335632B2, “Beta-secretase inhibitors and methods of use thereof” (CoMentis, Inc., priority 2001, dated 2008).
